Measured values: paper PMC10897015, “Investigation of anti-nociceptive, anti-inflammatory potential and ADMET studies of pure compounds isolated from Isodon rugosus Wall. ex Benth” (Frontiers in Pharmacology, 2024)
Where “and” joins values, the source holds several entries; their conditions need not be identical. Equal entries are not always repeated. Marks after values point to notes of the source that are not given here.

Tests used:
5-LOX = target: T1, 5-LOX (Glycine max, UniProt P08170); assay: Lipoxygenase (5-LOX) inhibitory activity; type: biochemical; settings: for inhibition at 62.5 µg/mL: read-out: % inhibition 5-LOX (mean ± SEM), 62.5 µg/ml; for inhibition at 250 µg/mL: read-out: % inhibition 5-LOX (mean ± SEM), 250 µg/ml; for inhibition at 500 µg/mL: read-out: % inhibition 5-LOX (mean ± SEM), 500 µg/ml; for inhibition at 1000 µg/mL: read-out: % inhibition 5-LOX (mean ± SEM), 1000 µg/ml
T1 sequence (P08170 1-839): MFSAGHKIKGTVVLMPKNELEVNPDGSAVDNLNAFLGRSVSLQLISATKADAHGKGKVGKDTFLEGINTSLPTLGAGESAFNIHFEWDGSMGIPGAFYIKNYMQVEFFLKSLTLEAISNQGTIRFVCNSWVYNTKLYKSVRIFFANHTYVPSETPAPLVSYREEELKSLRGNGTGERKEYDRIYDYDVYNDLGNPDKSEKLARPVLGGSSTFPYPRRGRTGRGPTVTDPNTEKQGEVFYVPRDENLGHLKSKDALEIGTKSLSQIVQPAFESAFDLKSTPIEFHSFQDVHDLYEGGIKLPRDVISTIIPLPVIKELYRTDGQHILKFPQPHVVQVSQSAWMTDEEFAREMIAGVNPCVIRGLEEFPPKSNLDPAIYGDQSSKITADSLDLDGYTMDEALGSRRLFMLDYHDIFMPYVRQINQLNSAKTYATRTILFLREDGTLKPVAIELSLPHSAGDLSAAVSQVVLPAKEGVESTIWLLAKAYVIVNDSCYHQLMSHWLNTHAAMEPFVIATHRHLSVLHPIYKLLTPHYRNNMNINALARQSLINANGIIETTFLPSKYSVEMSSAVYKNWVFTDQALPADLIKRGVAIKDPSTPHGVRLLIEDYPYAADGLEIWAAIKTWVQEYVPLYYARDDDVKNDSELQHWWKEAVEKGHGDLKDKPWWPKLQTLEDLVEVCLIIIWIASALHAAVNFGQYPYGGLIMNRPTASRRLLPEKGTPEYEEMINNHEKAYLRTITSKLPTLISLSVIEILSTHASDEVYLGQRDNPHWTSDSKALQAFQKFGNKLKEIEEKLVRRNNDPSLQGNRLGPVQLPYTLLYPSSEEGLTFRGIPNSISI
Procedure: The enzyme solution with a concentration of 10,000 U/ml was prepared. […] A solution (80 mM) of linoleic acid (substrate) was made. Likewise, a 50 mM phosphate buffer solution with a pH of 6.3 was prepared. The substrate, enzyme, and buffer were combined in equal proportions, each in a 2 ml volume. […] The inhibition percentage was determined by comparing the absorbance of the test samples with that of the positive control.

Swiss albino mice [1] = assay: Acetic acid-induced writhing test; type: in vivo; settings: for Writhes, individual values: single animals; for % analgesic activity (writhing inhibition) / Mean writhes: oral
Procedure: An anti-nociceptive assessment was performed on Swiss albino mice of both sexes, sourced from the National Institute of Health, Islamabad, Pakistan. […] Mice of either sex were divided into different groups, with five mice in each group. The test samples were carefully administered orally, with doses of 250, 500, 1000, and 2000 mg/kg.
I. rugosus was evaluated for its analgesic potential through an acetic acid-induced writhing test. Oral administration of the test samples was carried out using specified doses. After 30 min of interval, 10 ml/kg of acetic acid (0.6%) was injected into the mice. Group I served as the control and received 0.5% Tween-80 (3 ml/kg), group II received diclofenac sodium (10 mg/kg), and groups III and IV received test compounds. The count of writhes was recorded between 5 and 30 min, following the i/p injection of acetic acid ([Franzotti et al., 2000]).

Swiss albino mice [2] = assay: Formalin test with opioid receptor involvement; type: in vivo; settings: for formalin induced pain, licking time, individual values: single animals
Procedure: An anti-nociceptive assessment was performed on Swiss albino mice of both sexes, sourced from the National Institute of Health, Islamabad, Pakistan. […] Mice of either sex were divided into different groups, with five mice in each group. […]
The analgesic activity of I. rugosus was assessed through a formalin-induced licking test. The test samples were administered orally at specified doses.

Swiss albino mice [3] = assay: Hot plate test, involvement of adrenergic receptors; type: in vivo; settings: single animals
Procedure: The analgesic effects of the isolated compounds were measured using the hot plate method at a monitored temperature of 55 ± 0.2°C. The Swiss albino mice were positioned on the heated surface of the hot plate, and the period from placement to the onset of licking their hind paws or starting jump movements was noted as the response latency (thermal reactions). The test compounds were injected intraperitoneally. […] The animal models were checked for thermal reactions at various time intervals after sample administration.
The outcomes of the positive control and tested compounds were compared in animals pretreated with yohimbine. […] Additionally, clonidine at a dose of 3 μg/kg was intravenously administered. The animals were then subjected to the hot plate method, as reported before.

[4] = first phase, compounds 50 mg/kg, Mor 5 mg/kg, Nal 1 mg/kg
[5] = second phase, compounds 50 mg/kg, Mor 5 mg/kg, Nal 1 mg/kg

Row | SMILES | inhibition at 62.5 µg/mL (5-LOX) | inhibition at 250 µg/mL (5-LOX) | inhibition at 500 µg/mL (5-LOX) | inhibition at 1000 µg/mL (5-LOX) | % analgesic activity (writhing inhibition) (Swiss albino mice [1]; dose 10 mg/kg) | % analgesic activity (writhing inhibition) (Swiss albino mice [1]; dose 20 mg/kg) | Mean writhes (Swiss albino mice [1]; dose 20 mg/kg) | % analgesic activity (writhing inhibition) (Swiss albino mice [1]; dose 25 mg/kg) | Mean writhes (Swiss albino mice [1]; dose 25 mg/kg) | % analgesic activity (writhing inhibition) (Swiss albino mice [1]; dose 50 mg/kg) | Mean writhes (Swiss albino mice [1]; dose 50 mg/kg) | Total time spent in licking 0–5 min (Swiss albino mice [2]; [4]) | Total time spent in licking 15–30 min (Swiss albino mice [2]; [5]) | Hot plate analysis (adrenergic), individual values (Swiss albino mice [3]; 30 Minutes) | Hot plate analysis (adrenergic), individual values (Swiss albino mice [3]; 45 Minutes) | Hot plate analysis (adrenergic), individual values (Swiss albino mice [3]; 15 minutes) | Hot plate analysis (adrenergic), individual values (Swiss albino mice [3]; 60 minutes) | Hot plate analysis (adrenergic), individual values (Swiss albino mice [3]; 90 minutes) | further results
1 | O=C(CCc1ccc(O)cc1)c1c(O)cc(O)cc1O [Compound 2, 2-4-4-6-tetrahydroxy-dihydrochalcone] | 21.1 ± 0.9% | 31.1 ± 0.2% | 36.7 ± 0.67% | 41.43 ± 0.38% | 1.86^ns % | 9.49^ns % | 55.35 ± 0.87 | 18.41^* % | 49.90 ± 0.20 | 31.98^*** % | 41.60 ± 1.24 | 51.55 ± 0.99 s | 67.83 ± 0.57 s | 3.19 and 3.88 and 3.2 | 4.32 and 3.32 and 3.1 | 2.32 and 1.9 and 3.49 | 3.2 and 2.9 and 4.02 | 3.1 and 2.75 and 3.61 | Writhes, individual values (Swiss albino mice [1]; 10mg, listed as Comp 2): 59.2 and 60.82 and 60.05; Writhes, individual values (Swiss albino mice [1]; 20mg, listed as Comp 2): 55.1 and 54.26 and 56.7; Writhes, individual values (Swiss albino mice [1]; 25mg, listed as Comp 2): 49.8 and 50.8 and 49.1; Writhes, individual values (Swiss albino mice [1]; 50mg, listed as Comp 2): 41.02 and 43.67 and 40.12; % analgesic activity (writhing inhibition) (Swiss albino mice [1]; dose 10 mg/kg, listed as compound 2, 10 mg/kg): 01.86%; Mean writhes (Swiss albino mice [1]; dose 10 mg/kg, writhes counted 5-30 min after acetic acid, 10 mg/kg): 60.02 ± 0.90; Mean writhes (Swiss albino mice [1]; dose 10 mg/kg, writhes counted 5-30 min after acetic acid, listed as Comp 2, 10 mg/kg): 60.0233; Mean writhes (Swiss albino mice [1]; dose 20 mg/kg, listed as Comp 2, 20 mg/kg): 55.3533; Mean writhes (Swiss albino mice [1]; dose 25 mg/kg, listed as Comp 2, 25 mg/kg): 49.9; Mean writhes (Swiss albino mice [1]; dose 50 mg/kg, listed as Comp 2, 50 mg/kg): 41.6033; formalin induced pain, licking time, individual values (Swiss albino mice [2]; 0-5 minutes, listed as Comp 2): 51.46 and 50.12 and 53.09; formalin induced pain, licking time, individual values (Swiss albino mice [2]; 15-30 minutes, listed as Comp 2): 66.34 and 68.12 and 69.02; Total time spent in licking 0–5 min (Swiss albino mice [2]; first phase, compounds 50 mg/kg, Mor 5 mg/kg, Nal 1 mg/kg, listed as Comp 2): 51.5567 s; Total time spent in licking 15–30 min (Swiss albino mice [2]; second phase, compounds 50 mg/kg, Mor 5 mg/kg, Nal 1 mg/kg, listed as Comp 2): 67.8267 s
2 | O=C(O)C=Cc1ccc(O)c(O)c1 [Compound 1, 3,4-dihydroxy-cinnamic acid] | 59.4 ± 0.65% | 66.9 ± 1.04% | 71.8 ± 0.55% | 77 ± 1.49% | 05.10% and 05.10^ns % | 19.88% and 19.88^ns % | 49.33 ± 0.87 | 24.78% | 46.67 ± 0.87 | 62% and 61.90% | 23.30 ± 0.62 | 17.30 ± 0.77 s | 28.48 ± 0.58 s | 4.43 and 5.1 and 6.1 | 6.87 and 5.78 and 7.3 | 6.2 and 4.27 and 5.81 | 5.1 and 5.99 and 6.59 | 4.1 and 4.82 and 5.34 | Writhes, individual values (Swiss albino mice [1]; 10mg, listed as Comp 1): 60 and 58.9 and 55.1; Writhes, individual values (Swiss albino mice [1]; 20mg, listed as Comp 1): 50.1 and 48.2 and 49.71; Writhes, individual values (Swiss albino mice [1]; 25mg, listed as Comp 1): 45.64 and 46.56 and 47.8; Writhes, individual values (Swiss albino mice [1]; 50mg, listed as Comp 1): 22.1 and 23.29 and 24.51; Mean writhes (Swiss albino mice [1]; dose 20 mg/kg, listed as Comp 1, 20 mg/kg): 49.3367; Mean writhes (Swiss albino mice [1]; dose 25 mg/kg, listed as Comp 1, 25 mg/kg): 46.6667; Mean writhes (Swiss albino mice [1]; dose 50 mg/kg, listed as Comp 1, 50 mg/kg): 23.3; formalin induced pain, licking time, individual values (Swiss albino mice [2]; 0-5 minutes, listed as Comp 1): 16.3 and 17.41 and 18.2; formalin induced pain, licking time, individual values (Swiss albino mice [2]; 15-30 minutes, listed as Comp 1): 27.57 and 28.5 and 29.36; Total time spent in licking, % inhibition (0–5 min) (Swiss albino mice [2]; [4]): 69.45%; Total time spent in licking 0–5 min (Swiss albino mice [2]; first phase, compounds 50 mg/kg, Mor 5 mg/kg, Nal 1 mg/kg, listed as Comp 1): 17.3033 s; Total time spent in licking, % inhibition (15–30 min) (Swiss albino mice [2]; [5]): 63.97^*** %; Total time spent in licking 15–30 min (Swiss albino mice [2]; second phase, compounds 50 mg/kg, Mor 5 mg/kg, Nal 1 mg/kg, listed as Comp 1): 28.4767 s
